Key:
[1] = system: patient addicted to narcotics; assay: Clinical treatment of acute and severe diarrhea accompanying rapid narcotic detoxification (acute withdrawal); type: in vivo, human; conditions: parenteral, about 0.025 mg to about 0.1 mg octreotide, preferably about 0.0007 mg/kg, before nalmefene
Description: A medication to induce unconsciousness is administered, preferably by the intravenous route, in doses appropriate for the patient's weight and medical condition. This medication should be a non-opioid derivative not related to the narcotic classification of drugs, such as midazolam, propofol, sodium pentothal, a combination thereof, or other drugs commonly used to induce unconsciousness. As a specific example, a dose of 0.3 milligrams of midazolam per kilogram of body weight administered intravenously is usually sufficient to produce unconsciousness.
After octreotide and glycopyrrolate have been administered and the patient's vital signs are stable, nalmefene is administered parenterally, preferably by intravenous route. For a 70 kilogram adult patient, the typical initial dose of parenteral nalmefene is from about 0.5-1.5 mg to no more than about 1.5-2.0 of nalmefene. The dosage is adjusted proportionally based on the weight of the patient, and the rate of administration of nalmefene may be titrated upward or downward depending on the response of the patient's sympathetic nervous system as evidence by monitoring of life functions and other clinical criteria. Some time thereafter, usually no more than four hours after said administration of nalmefene is complete, the patient can be expected to be detoxified and can be safely rendered back to a state of consciousness. […]

[2] = system: patient addicted to narcotics; conditions: background statement, prior practice, dose not given; cited from earlier work
[3] = system: patient addicted to narcotics; conditions: background statement, prior practice, dose not given; cited from earlier work; remark: listed apart in the source
[4] = system: patient addicted to narcotics; assay: Clinical tolerability (bradycardia, abdominal distention) of octreotide during rapid narcotic detoxification; conditions: parenteral
Description: A patient addicted to narcotics undergoes intravenous cannulation by either the peripheral or central venous route, and the appropriate intravenous solution is infused intravenously at the required rate for the size and conditions of the patient. Monitors of life function are attached to the patient which may include a pulse oximeter, electrocardiogram patches, a blood pressure cuff attached to a sphygmomanometer and a means to measure the carbon dioxide of the patient's exhaled breath by way of capnography.
This is typically followed by intravenous administration of a medication such as a depolarizing or non-depolarizing neuromuscular blocking agent to facilitate intubation of the patient's trachea. The endotracheal tube is then secured in the correct anatomic position using usual anesthetic care measures. After stabilization of the patient's life functions as usually done in routine anesthetic management, the patient is administered parenterally about 0.025 mg to about 0.1 mg octreotide, preferably about 0.0007 mg/kg of body weight.
As noted previously, glycopyrrolate is preferred and is administered parenterally with the octreotide in an amount ranging from about 0.2 mg to above 0.4 mg glycopyrrolate. However, from about 0.2 mg to about 0.4 mg atropine administered parenterally is also effective.

Substance: octreotide
- prevention of acute and severe diarrhea accompanying acute detoxification [1]: sufficient to prevent the acute and severe diarrhea
- incidence of bradycardia [2]: unacceptable incidence of bradycardia
- treating clinically significant diarrhea during rapid detoxification [3]: proven effective
- bradycardia in the post-detoxification period ([4]; about 0.025 mg to about 0.05 mg octreotide every 12 hours): without causing significant bradycardia
- bradycardia ([4]; about 0.025 mg to about 0.1 mg octreotide, preferably about 0.0007 mg/kg): does not precipitate significant bradycardia
- abdominal distention ([4]; about 0.025 mg to about 0.1 mg octreotide, distention frequently observed at higher dosage levels): does not result in the abdominal distention

Source: US6214792A, “Method for treating acute and severe diarrhea” (priority 1999, dated 2001)
